According to patent publication US4894388A, “Glycosidase inhibitors and use thereof” (priority 1988, dated 1990):

How the values were obtained:
Golgi α-D-mannosidase II = target: T1, Golgi α-D-mannosidase II (Homo sapiens, UniProt Q16706); test: Inhibition of Golgi α-D-mannosidase II in extracts of fibroblasts from a mannosidosis patient; format: biochemical; conditions: for inhibition at 1000 µM: 1 mM inhibitor, pH 5.75, mean of 2-4 determinations
T1 construct: activity in extracts of fibroblasts from a patient; endogenous in cells; host or cells: fibroblasts from a mannosidosis patient (extract)
T1 sequence (Q16706 1-1144): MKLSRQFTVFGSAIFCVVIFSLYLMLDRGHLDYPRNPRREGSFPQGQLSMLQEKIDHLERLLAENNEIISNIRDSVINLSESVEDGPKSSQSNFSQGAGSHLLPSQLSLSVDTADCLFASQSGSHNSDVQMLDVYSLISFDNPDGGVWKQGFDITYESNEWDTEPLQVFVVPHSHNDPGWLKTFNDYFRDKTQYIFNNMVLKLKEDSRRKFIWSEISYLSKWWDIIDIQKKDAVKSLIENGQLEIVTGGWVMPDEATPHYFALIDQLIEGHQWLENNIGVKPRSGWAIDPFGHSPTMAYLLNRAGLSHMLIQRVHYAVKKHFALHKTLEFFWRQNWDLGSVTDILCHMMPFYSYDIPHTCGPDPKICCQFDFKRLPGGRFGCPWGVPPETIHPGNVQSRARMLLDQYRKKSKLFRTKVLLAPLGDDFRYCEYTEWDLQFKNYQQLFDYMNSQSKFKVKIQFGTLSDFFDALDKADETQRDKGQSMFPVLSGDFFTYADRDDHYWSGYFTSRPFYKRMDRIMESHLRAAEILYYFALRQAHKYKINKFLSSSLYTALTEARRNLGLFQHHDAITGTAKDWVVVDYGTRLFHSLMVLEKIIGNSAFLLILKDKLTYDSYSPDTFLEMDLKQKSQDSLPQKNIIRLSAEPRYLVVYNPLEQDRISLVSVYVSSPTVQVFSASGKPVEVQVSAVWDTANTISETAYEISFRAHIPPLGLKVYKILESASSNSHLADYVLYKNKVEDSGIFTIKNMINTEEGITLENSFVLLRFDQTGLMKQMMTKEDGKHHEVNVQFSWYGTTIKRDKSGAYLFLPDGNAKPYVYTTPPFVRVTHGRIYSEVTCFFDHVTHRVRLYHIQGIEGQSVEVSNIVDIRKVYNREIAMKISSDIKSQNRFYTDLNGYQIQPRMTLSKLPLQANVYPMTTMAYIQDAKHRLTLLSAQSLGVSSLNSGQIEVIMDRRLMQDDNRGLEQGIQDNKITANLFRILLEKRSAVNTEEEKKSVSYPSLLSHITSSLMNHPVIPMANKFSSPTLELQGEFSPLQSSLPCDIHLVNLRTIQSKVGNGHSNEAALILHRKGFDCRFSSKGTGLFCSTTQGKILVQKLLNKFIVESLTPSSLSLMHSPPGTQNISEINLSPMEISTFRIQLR
Experimental: (§1) The glycosidase activities in an extract of normal human liver were assayed by using the appropriate fluorigenic 4-methylumbelliferyl glycoside substrate (Koch-Light, Haverhill, Suffolk, U.K.) with a concentration of 0.5 mM at the optimal pH of each enzyme [Burditt et al., Clin. Chim. Acta 140, 201-209 (1980)]. Human liver acidic (lysomal) and neutral (cystosolic) α-D-mannosidases were assayed similarly at their pH-optima, of 4.0 and 6.5, respectively, after separation by affinity chromatography on concanavalin A-Sepharose® (Pharmacia Ltd, Milton Keynes, Bucks, U.K.) [Phillips et al., Biochem. J. 153, 579-587 (1976)]. The residual intermediate (Golgi) α-mannosidase II activity in extracts of fibroblasts from a patient with the lysosomal storage disease, mannosidosis, was assayed at pH 5.75 using the synthetic substrate (Burditt et al, Ibid.). The specificity of the inhibitors was determined by assaying the glycosidases in the presence and absence of a 1 mM solution of each compound. The nature of the inhibition and the value of Ki were determined using the Dixon graphical procedure.
(§2) Enzymic activities were measured in the presence and absence of 1 mM inhibitor. Inhibition (%) was calculated as the fraction of activity lost in the presence of inhibitor. The values are means of two to four independent determinations.

[1] = target: T2, cytosolic (neutral) α-D-mannosidase (Homo sapiens, UniProt Q9NTJ4); test: Inhibition of cytosolic (neutral) α-D-mannosidase, fluorigenic 4-methylumbelliferyl glycoside substrate; format: biochemical; conditions: for inhibition at 1000 µM: 1 mM inhibitor, 0.5 mM substrate, pH 6.5, mean of 2-4 determinations
T2 construct: Post mortem human liver, which had been stored at -20° C; from tissue; host or cells: post mortem human liver, 37,000 g supernatant; concanavalin A-Sepharose fraction
T2 sequence (Q9NTJ4 1-1040): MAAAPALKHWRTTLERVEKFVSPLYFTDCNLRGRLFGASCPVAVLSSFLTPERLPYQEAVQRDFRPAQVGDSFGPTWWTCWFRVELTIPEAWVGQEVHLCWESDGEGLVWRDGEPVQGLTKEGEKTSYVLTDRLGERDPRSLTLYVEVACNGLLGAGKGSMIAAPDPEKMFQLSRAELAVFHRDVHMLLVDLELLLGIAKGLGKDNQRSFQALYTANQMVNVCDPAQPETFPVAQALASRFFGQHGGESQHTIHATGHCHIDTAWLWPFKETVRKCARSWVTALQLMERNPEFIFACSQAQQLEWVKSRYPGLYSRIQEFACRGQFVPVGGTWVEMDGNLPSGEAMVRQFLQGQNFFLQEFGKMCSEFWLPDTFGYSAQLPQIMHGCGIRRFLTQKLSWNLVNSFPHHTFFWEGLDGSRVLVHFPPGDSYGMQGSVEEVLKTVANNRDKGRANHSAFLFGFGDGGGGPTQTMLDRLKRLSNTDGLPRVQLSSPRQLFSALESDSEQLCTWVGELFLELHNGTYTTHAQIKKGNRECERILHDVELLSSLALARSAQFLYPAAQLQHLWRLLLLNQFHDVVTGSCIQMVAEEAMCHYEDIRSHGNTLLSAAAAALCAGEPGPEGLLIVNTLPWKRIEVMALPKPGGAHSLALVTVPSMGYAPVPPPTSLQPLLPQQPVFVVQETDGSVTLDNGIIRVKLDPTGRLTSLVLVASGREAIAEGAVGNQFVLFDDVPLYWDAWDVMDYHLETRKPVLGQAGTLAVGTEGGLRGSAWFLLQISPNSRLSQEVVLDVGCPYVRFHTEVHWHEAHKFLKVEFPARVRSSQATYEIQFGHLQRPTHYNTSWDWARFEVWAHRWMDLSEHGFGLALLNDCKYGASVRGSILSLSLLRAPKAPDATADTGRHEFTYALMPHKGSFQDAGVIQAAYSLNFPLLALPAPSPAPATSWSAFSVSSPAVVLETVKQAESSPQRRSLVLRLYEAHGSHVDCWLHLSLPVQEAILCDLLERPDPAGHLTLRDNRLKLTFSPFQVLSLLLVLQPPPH
Experimental: Post mortem human liver, which had been stored at -20° C. until required was homogenized in deionized water (50%, w/v) in a Potter-Elvehjem homogenizer and then centrifuged at 37,000 g for 30 min in an MSE 18 centrifuge. The resultant supernatant was used as the source of enzymic activities.
as §1, §2

inhibition at 1000 µM (Golgi α-D-mannosidase II) [%] | inhibition at 1000 µM [1] [%] | Structure (SMILES) | inhibition of α-D-mannosidase II (in words) (Golgi α-D-mannosidase II) | inhibition of neutral cytosolic α-D-mannosidase (in words) ([1]; relative to α-D-mannosidase II)
0 | 4 | OC[C@H](O)[C@H]1[C@H](O)[C@H](O)CN1Cc1ccccc1 [N-benzyl DIA, N-benzyl-1,4-dideoxy-1,4-imino-L-allitol] | – | –
33 | 20 | CN1C[C@@H](O)[C@@H](O)[C@@H]1[C@@H](O)CO [N-methyl DIA, N-methyl-1,4-dideoxy-1,4-imino-L-allitol] | – | –

Structure (SMILES) | inhibition at 1000 µM (Golgi α-D-mannosidase II) [%] | inhibition at 1000 µM [1] [%] | inhibition of α-D-mannosidase II (in words) (Golgi α-D-mannosidase II) | inhibition of neutral cytosolic α-D-mannosidase (in words) ([1]; relative to α-D-mannosidase II)
OC[C@H](O)[C@@H]1NC[C@@H](O)[C@H]1O [DIA, 1,4-dideoxy-1,4-imino-L-allitol] | 95 | 61 | potent inhibitor | to a lesser extent
